This assay concerns the target T1, α-7 nicotinic ACh receptor ion channels expressed in mammalian HEK 293 cells (Rattus norvegicus, UniProt Q05941).
T1 construct: expressed in transfected cells
In words: Ca2+-sensitive, fluorescence-based assay for α-7 nicotinic acetylcholine receptor channel function (FLIPR). It is filed as cell-based. The method, then:
II) A Ca^2+-Sensitive, Fluorescence-Based Assay α-7 for Nicotinic Acetylcholine Receptor Channel Function In Mammalian Cells (“FLIPR”).
Lead compounds are evaluated for agonist activity at α-7, α3β4, α4αβ2, and α1β1δ1ε sub-types of nicotinic ACh receptor ion channels expressed in mammalian HEK 293 cells. Agonist potency and efficacy values are determined from kinetic fluorescence Ca^2+ influx measurements made using a 384 well FLIPR (Fluorescence Image Plate Reader). […] In this assay, channel expressing HEK cell lines seeded in 384 well assay plates are loaded with a membrane permeant fluorescent Ca^2+ indicator dye, whose 510 nm green emission signal increases in response to elevation of intracellular Ca^2+ concentration. The basal fluorescence from the cells is monitored in real time, followed by the acute addition of test compounds.
Reagents: The acetomethoxy (AM) ester of the Ca^2+ indicator dye Fluo-4 was obtained from InVitrogen, (Carlsbad, Calif.). Acetylcholine and all buffer constituents were purchased from Sigma Chemical Company, St. Louis, Mo. G418 and Minimal Essential Medium were purchased from InVitrogen Life Technologies, Carlsbad, Calif. Fetal bovine serum was purchased from (InVitrogen, Carlsbad, Calif.).
HEK-293 cells were grown in Minimal Essential Medium containing 10% (v/v) fetal bovine serum at 37° C. in a 5% CO2 incubator. HEK-293 cells stably expressing the ion channels were grown in the same medium with the addition of 500 μg/ml G418.
HEK-293 cells expressing the ion channels of interest were plated in 384 well, black-walled, clear-bottomed, poly-D-lysine coated plates at a density of ˜20,000 cells/well in 20 μl of Minimal Essential Medium containing 10% (v/v) fetal bovine serum and incubated for 2 days at 29° C. in a 5% CO2 incubator. Prior to assay, cells were loaded with the Fluo-4 AM ester. […] Dye loading was allowed to proceed for 90 minutes at room temperature at which time the dye loading solution was removed and replaced with 40 μl/well of Hanks buffer. Cells loaded with dye were loaded onto a FLIPR384 (Molecular Devices, Sunnyvale, Calif.). Fluo-4 dye was excited using the 488 nm line of an argon laser. Emission was filtered using a 540+/−30 nm bandpass filter. For evaluation of the effects of test compounds using the Ca^2+ flux assay, compounds to be tested were provided in assay ready plates. For nicotinic receptor ion channel expressing cells, the assay was initiated by the addition of 20 μl/well of Hanks buffer containing test compounds. For all assays, data were collected at 1 Hz for 10 seconds (baseline), at which time the compound containing stimulus buffers are added, and further measurements collected at 0.33 Hz for 3 min.
The statistical robustness of the nicotinic receptor Ca^2+ flux assays is determined from blanks and totals wells. […] The raw fluorescence units data files generated on the FLIPR plate reader are automatically exported and processed by in-house data analysis tools. The reduced percent activation data for each concentration of test compound are fit using MathIQ fitting engine (ID Business Solutions Limited, Surrey, UK). Data were analyzed by fitting maximum amplitudes of change in fluorescence, for Ca^2+ flux for a given condition of test compound. […] Test compound efficacy values (Ymax values) are expressed relative to a maximal response to acetylcholine in the total wells.

The mark [1] stands for this setting: activity class based on EC50, Ca2+ influx, read-out: FLIPR α7 actvity rating (EC50).
[2] abbreviates: agonist potency, Ca2+ influx, read-out: FLIPR α7-HI (EC50).
Where [3] appears, read: FLIPR α7-HI (EC50, nM), agonist potency, Ca2+ influx.
The mark [4] stands for this setting: FLIPR α7 actvity rating (EC50, nM), activity class based on EC50, Ca2+ influx.

Each structure is given as a SMILES string. Where two headings read alike, the source gives them in different places.

T1 sequence (Q05941 23-502): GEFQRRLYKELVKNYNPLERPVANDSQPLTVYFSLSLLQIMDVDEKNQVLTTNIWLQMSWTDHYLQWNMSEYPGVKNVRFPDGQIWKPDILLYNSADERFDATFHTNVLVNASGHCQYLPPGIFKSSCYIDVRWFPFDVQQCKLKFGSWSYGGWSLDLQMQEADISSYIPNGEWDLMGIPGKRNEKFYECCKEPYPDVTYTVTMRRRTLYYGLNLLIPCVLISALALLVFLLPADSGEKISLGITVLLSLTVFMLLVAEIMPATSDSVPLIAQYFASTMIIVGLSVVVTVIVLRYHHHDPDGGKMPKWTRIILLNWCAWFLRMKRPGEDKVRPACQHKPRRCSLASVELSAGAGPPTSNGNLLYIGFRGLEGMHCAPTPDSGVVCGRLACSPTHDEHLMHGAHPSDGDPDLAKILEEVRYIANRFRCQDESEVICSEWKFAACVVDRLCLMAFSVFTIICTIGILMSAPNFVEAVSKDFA

Usually EC50 stands for the concentration at which the effect is half-maximal. In the case of `c1ccc2sc(NC3=NC[C@@]4(C[N@]5CCC[C@H]4C5)O3)nc2c1` (relative stereo) [Example 1, (5S*,5′R*)—N-(benzo[d]thiazol-2-yl)-4′H-1-azaspiro[bicyclo[3.2.1]octane-6,5′-oxazol]-2′-amine], the EC50 by setting is: under setting [1], 1000 to 100000 nM; under setting [2], greater than 100000 nM.

Take `c1cnc2sc(NC3=NCC4(CN5CCCC4C5)O3)nc2c1` (single isomer, unassigned) [Example 5b]: the EC50 was 88 nM under setting [3] and less than 100 nM (read-out: FLIPR α7 actvity rating (EC50), activity class based on EC50, Ca2+ influx).

As to `c1ccc2cc(NC3=NC[C@@]4(C[N@]5CCC[C@H]4C5)O3)ncc2c1` (single isomer, unassigned) [Example 4, (5S*,5R*)—N-(isoquinolin-3-yl)-4′H-1-azaspiro[bicyclo[3.2.1]octane-6,5′-oxazol]-2′-amine], the EC50 was 820 nM under setting [3] and less than 100 nM under setting [4].

For `c1cnc2sc(NC3=NCC4(CN5CCCC4C5)O3)nc2c1` (single isomer, unassigned) [Example 5a], the EC50 under setting [3] turned out to be 105 nM and the EC50 under setting [4] is less than 100 nM.

Consider `COc1ccc2nc(NC3=NC[C@@]4(C[N@]5CCC[C@H]4C5)O3)sc2c1` (relative stereo) [Example 2, (5S*,5′R*)—N-(6-methoxybenzo[d]thiazol-2-yl)-4′H-1-azaspiro[bicyclo[3.2.1]octane-6,5′-oxazol]-2′-amine], for which the EC50 is 100 to 1000 nM under setting [1] and 2050 nM under setting [2].

Regarding `c1cnc2sc(NC3=NC[C@@]4(C[N@@]5CCC[C@@H]4C5)O3)nc2c1` (relative stereo) [Example 5, (5R*,5′R*)—N-(thiazolo[5,4-b]pyridin-2-yl)-4′H-1-azaspiro[bicyclo[3.2.1]octane-6,5′-oxazol]-2′-amine], the EC50 is, setting by setting: under setting [3], 132 nM; under setting [4], less than 100 nM.

With `c1cnc2sc(NC3=NC[C@@]4(C[N@]5CCC[C@H]4C5)O3)nc2c1` (relative stereo) [Example 3, (5S*,5′R*)—N-(thiazolo[5,4-b]pyridin-2-yl)-4′H-1-azaspiro[bicyclo[3.2.1]octane-6,5′-oxazol]-2′-amine], the EC50 was 1080 nM under setting [3] and 100 to 1000 nM under setting [4].

These data come from patent US8507516B2, “Azabicyclic compounds as alpha-7 nicotinic acetylcholine receptor ligands” (Bristol-Myers Squibb Company, priority 2009, dated 2013).
